The GI50 is the concentration that inhibits growth by half. As a reminder, the pIC50 is the negative decadic logarithm of the IC50, by convention in mol/L. Read a high pIC50 as a low IC50.

Our source for the GI50 and IC50 values is US12534457B2, “Heteroaryl derivative compounds, and uses thereof” (Voronoi Inc., priority 2021, dated 2026).

Test [1] concerns Ba/F3 cells expressing EGFR Del19/C797S (EGFR DC). As to the kind of experiment: Proliferation inhibitory activity, Ba/F3 cells expressing EGFR Del19/C797S (CellTiter-Glo). The test is classed as cell-based. The note with it: Mus musculus, BaF3, 72 hours of compound treatment. The procedure, abridged:
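Viability after 72 h of compound exposure was measured by luminescence (CellTiter-Glo) in Ba/F3 lines transduced with mutant EGFR. Final concentrations spanned 0.2 nM–5 μM over 12 threefold steps. Growth relative to untreated control gave GI50 values; each test was run three times.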
On the technique in general: ATP-based viability assays read luminescence as a measure of living cells.

The subject of test [2] is Ba/F3 G719A (EGFR mutation). As to the kind of experiment: Proliferation inhibitory activity, Ba/F3 cells expressing EGFR G719A. The test is classed as cell-based. The note with it: Mus musculus, BaF3, 72 hours, CellTiter-Glo. Here is the method: (§1) The following experiments were performed to evaluate the inhibitory activity of the compounds according to the present disclosure on Ba/F3 proliferation expressing EGFR C797S, L861Q, G719A, S768I, L718Q, and/or G724S mutations.
(§2) For Ba/F3 cells, RPMI-1640 containing 10% FBS and 5 ng/ml IL-3 (R&D Systems) was used. Transduced Ba/F3 cells were cultured after adding 1 μg/ml puromycin (Invitrogen) to the same medium.
(§3) At 24 hours before treatment with the compounds, 3000 to 5000 cells were aliquoted into each well of a white clear bottom 96 well plate (Corning). The compounds were diluted in dimethyl sulfoxide (3 times dilution, 12 concentrations in total), and injected in an amount of 1 μl so that the final concentration was 0.2 nM to 5 uM. For measurement of living cells, after 72 hours of compound treatment, the cells were stored at room temperature for 10 min using CellTiter-Glo luminescentcell-viability reagent (Promega), and then luminescence intensity was measured using a reader (SynergyNeo, Biotek). Each test was repeated three times. Result values were calculated as the cell growth rate (%) compared to the control. The graphs were created using GraphPad Prism version 8.3.0 program and the GI50 values were calculated.

For test [3], the system named is Ba/F3 L861Q (EGFR mutation). In words: Proliferation inhibitory activity, Ba/F3 cells expressing EGFR L861Q. As to conditions: Mus musculus, BaF3, 72 hours, CellTiter-Glo. The test is classed as cell-based. Here is the method:
as §1, §2, §3

The test system of test [4] is Ba/F3 S768I (EGFR mutation). In words: Proliferation inhibitory activity, Ba/F3 cells expressing EGFR S768I. The test is classed as cell-based. The note with it: Mus musculus, BaF3, 72 hours, CellTiter-Glo. The method, then:
as §1, §2, §3

The subject of test [5] is Ba/F3 L718Q (EGFR mutation). As to the kind of experiment: Proliferation inhibitory activity, Ba/F3 cells expressing EGFR L718Q. The test is classed as cell-based. The note with it: Mus musculus, BaF3, 72 hours, CellTiter-Glo. Here is the method: as §1, §2, §3
Test [6] deals with Ba/F3 G724S (EGFR mutation). In words: Proliferation inhibitory activity, Ba/F3 cells expressing EGFR G724S. The test is classed as cell-based. The note with it: Mus musculus, BaF3, 72 hours, CellTiter-Glo. The method, then:
as §1, §2, §3

The next test has as its target T1, EGFR (d746-750) (Homo sapiens, UniProt P00533, DEL746-750).
T1 construct: purchased Reaction Biology
As to the kind of experiment: EGFR-family mutant enzyme activity (Reaction Biology). The test is classed as biochemical.

A further test concerns the target T2, EGFR (d746-750/C797A) (Homo sapiens, UniProt P00533, C797A/DEL746-750).
T2 construct: purchased Reaction Biology
Described as above. The test is classed as biochemical.

A further test has as its target T3, EGFR (d746-750/C797S) (Homo sapiens, UniProt P00533, C797S/DEL746-750).
T3 construct: purchased Reaction Biology
Described as above. The test is classed as biochemical.

The target of test [7] is T4, EGFR (d746-750/T790M/C797S) (Homo sapiens, UniProt P00533, C797S/DEL746-750/T790M).
T4 construct: purchased Reaction Biology
The description is as above. The test is classed as biochemical.

In another test the target is T5, EGFR (D761Y) (Homo sapiens, UniProt P00533, D761Y).
T5 construct: purchased Reaction Biology
Described as above. The test is classed as biochemical.

A further test has as its target T6, EGFR (G719C) (Homo sapiens, UniProt P00533, G719C).
T6 construct: purchased Reaction Biology
Described as above. The test is classed as biochemical.

The next test addresses T7, EGFR (G719D) (Homo sapiens, UniProt P00533, G719D).
T7 construct: purchased Reaction Biology
The test is described as above. The test is classed as biochemical.

Another test addresses T8, EGFR (G719S) (Homo sapiens, UniProt P00533, G719S).
T8 construct: purchased Reaction Biology
The description is as above. The test is classed as biochemical.

Another test addresses T9, EGFR (L718Q) (Homo sapiens, UniProt P00533, L718Q).
T9 construct: purchased Reaction Biology
The description is as above. The test is classed as biochemical.

The target in the next test is T10, EGFR (L747S) (Homo sapiens, UniProt P00533, L747S).
T10 construct: purchased Reaction Biology
The description is as above. The test is classed as biochemical.

The next test addresses T11, EGFR (L792F) (Homo sapiens, UniProt P00533, L792F).
T11 construct: purchased Reaction Biology
Described as above. The test is classed as biochemical.

A further test addresses T12, EGFR (L792F/L858R) (Homo sapiens, UniProt P00533, L792F/L858R).
T12 construct: purchased Reaction Biology
The description is as above. The test is classed as biochemical.

The target of another test is T13, EGFR (L861Q) (Homo sapiens, UniProt P00533, L861Q).
T13 construct: purchased Reaction Biology
Described as above. The test is classed as biochemical.

The next test addresses T14, ERBB2/HER2 (Homo sapiens, UniProt P04626).
T14 construct: purchased Reaction Biology
The description is as above. The test is classed as biochemical.

For the next test, the target named is T15, ERBB4/HER4 (Homo sapiens, UniProt Q15303).
T15 construct: purchased Reaction Biology
The test is described as above. The test is classed as biochemical.

pIC50: −log10 of the molar value.

T6 sequence (P00533 25-1210 G719C): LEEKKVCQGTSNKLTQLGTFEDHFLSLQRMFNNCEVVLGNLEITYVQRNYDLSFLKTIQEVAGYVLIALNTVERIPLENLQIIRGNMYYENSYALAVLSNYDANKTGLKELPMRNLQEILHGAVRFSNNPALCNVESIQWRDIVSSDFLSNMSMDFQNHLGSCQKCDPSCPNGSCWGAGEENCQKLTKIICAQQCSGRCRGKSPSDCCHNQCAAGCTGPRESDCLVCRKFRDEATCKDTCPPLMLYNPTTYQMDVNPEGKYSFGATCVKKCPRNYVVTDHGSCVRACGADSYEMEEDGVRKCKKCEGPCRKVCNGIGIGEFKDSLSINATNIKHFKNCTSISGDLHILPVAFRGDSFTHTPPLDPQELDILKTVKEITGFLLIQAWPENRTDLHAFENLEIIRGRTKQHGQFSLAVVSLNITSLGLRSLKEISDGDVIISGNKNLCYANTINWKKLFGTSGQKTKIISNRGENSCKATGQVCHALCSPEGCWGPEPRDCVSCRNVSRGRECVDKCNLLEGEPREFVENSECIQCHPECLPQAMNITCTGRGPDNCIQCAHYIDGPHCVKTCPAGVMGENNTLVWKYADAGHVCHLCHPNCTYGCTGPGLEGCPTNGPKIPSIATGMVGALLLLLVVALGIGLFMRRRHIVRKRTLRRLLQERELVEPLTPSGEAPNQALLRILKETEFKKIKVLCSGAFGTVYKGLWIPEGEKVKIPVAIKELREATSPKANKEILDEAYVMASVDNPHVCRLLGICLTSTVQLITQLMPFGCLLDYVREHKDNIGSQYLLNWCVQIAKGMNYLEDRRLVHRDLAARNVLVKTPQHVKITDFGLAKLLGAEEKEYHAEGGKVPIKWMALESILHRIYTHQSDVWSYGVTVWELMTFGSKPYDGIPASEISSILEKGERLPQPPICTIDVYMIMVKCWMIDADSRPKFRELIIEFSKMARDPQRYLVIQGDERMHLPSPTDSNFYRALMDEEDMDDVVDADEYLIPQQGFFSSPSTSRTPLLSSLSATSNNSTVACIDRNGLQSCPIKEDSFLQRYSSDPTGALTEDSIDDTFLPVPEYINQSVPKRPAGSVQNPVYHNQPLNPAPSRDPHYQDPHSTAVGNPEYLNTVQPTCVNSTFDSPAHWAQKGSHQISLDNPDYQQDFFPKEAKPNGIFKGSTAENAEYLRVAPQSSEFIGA
T10 sequence (P00533 25-1210 L747S): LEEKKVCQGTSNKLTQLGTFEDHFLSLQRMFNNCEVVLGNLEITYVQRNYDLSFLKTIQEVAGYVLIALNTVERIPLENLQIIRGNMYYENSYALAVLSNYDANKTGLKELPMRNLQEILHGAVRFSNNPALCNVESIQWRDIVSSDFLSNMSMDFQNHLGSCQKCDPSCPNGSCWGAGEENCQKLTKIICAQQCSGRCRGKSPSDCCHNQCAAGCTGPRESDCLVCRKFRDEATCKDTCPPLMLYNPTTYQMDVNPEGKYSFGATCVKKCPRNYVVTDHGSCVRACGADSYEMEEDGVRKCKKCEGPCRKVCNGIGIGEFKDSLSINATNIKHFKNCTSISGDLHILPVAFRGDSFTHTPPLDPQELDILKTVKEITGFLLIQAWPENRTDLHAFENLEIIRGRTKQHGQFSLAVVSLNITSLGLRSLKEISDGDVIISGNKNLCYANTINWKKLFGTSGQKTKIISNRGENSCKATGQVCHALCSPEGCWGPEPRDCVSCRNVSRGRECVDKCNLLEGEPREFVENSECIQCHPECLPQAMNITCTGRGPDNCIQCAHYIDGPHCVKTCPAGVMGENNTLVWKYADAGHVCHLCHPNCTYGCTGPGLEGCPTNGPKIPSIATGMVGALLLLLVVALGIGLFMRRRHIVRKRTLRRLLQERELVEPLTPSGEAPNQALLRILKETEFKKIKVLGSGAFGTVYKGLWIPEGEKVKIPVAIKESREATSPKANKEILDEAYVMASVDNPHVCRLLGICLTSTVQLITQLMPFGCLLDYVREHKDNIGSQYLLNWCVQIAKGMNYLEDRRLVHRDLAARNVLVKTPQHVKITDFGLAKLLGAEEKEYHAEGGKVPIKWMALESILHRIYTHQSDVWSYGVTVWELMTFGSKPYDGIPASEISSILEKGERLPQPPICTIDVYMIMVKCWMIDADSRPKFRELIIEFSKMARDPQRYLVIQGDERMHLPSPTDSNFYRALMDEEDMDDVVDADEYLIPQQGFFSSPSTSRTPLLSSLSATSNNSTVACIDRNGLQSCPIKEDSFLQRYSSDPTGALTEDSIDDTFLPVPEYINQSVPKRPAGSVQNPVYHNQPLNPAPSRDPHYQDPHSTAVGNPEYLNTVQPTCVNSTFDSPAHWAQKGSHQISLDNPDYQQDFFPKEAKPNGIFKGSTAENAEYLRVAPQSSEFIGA
T5 sequence (P00533 25-1210 D761Y): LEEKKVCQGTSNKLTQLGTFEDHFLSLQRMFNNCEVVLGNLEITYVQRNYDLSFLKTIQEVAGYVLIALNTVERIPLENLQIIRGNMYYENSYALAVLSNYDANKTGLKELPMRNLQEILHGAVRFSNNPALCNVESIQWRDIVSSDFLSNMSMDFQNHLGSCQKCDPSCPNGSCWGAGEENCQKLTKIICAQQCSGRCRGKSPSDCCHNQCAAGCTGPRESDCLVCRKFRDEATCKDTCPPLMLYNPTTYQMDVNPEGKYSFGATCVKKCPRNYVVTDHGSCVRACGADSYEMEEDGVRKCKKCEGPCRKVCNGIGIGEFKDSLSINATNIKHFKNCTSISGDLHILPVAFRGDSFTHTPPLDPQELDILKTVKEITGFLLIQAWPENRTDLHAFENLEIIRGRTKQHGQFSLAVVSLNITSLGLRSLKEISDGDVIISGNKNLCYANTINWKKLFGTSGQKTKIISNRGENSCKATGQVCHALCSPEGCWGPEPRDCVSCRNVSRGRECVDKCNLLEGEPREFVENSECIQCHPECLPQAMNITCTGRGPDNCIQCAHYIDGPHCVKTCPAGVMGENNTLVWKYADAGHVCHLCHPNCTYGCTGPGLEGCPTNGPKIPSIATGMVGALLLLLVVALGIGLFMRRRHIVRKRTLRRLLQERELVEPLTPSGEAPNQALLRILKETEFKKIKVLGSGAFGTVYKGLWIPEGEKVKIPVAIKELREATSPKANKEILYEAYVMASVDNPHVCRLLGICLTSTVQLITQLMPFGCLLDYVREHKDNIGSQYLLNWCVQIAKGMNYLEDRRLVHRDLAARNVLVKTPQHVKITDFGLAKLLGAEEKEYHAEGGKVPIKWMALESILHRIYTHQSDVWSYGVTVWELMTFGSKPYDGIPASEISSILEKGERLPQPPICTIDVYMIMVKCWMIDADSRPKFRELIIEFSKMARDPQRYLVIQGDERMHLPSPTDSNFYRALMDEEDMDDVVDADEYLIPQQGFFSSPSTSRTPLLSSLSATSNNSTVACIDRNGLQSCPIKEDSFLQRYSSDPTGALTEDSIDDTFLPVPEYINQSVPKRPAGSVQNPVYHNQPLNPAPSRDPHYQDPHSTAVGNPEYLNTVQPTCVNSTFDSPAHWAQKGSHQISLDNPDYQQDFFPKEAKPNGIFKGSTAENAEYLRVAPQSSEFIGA
T12 sequence (P00533 25-1210 L792F/L858R): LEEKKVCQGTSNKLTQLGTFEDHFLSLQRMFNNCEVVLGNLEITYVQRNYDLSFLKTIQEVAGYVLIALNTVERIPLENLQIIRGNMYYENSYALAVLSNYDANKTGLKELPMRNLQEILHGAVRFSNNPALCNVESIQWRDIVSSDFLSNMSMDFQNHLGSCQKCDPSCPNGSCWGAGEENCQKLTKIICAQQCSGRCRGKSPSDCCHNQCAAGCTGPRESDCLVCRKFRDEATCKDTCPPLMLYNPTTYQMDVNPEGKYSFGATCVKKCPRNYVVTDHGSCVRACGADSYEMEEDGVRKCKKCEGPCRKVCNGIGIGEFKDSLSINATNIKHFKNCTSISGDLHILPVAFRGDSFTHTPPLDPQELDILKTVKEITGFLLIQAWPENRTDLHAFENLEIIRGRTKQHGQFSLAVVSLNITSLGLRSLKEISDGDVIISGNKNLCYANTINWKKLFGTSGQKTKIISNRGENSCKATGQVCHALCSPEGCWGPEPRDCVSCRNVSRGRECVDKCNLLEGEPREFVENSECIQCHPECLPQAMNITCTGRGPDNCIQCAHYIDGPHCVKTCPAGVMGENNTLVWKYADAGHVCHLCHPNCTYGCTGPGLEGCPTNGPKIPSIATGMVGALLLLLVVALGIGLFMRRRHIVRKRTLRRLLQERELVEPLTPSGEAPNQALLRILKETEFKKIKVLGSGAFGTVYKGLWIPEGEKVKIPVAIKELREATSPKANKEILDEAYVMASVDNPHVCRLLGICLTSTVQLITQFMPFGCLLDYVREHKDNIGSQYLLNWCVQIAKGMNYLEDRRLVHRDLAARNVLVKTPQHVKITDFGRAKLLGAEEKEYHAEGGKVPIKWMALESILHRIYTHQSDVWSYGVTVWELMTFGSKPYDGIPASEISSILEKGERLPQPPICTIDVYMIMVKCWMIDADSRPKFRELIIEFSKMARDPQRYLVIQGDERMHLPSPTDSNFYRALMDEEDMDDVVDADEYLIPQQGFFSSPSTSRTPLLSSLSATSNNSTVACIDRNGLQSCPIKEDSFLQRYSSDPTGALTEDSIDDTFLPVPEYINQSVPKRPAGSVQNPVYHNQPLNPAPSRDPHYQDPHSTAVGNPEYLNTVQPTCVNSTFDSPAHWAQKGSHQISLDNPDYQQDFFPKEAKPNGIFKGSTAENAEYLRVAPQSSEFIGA

In the case of `COc1cc(N2CCC(N3CCN(C)CC3)CC2)ccc1Nc1cc(N2OCC[C@@H]2c2ccc(F)cc2F)ncn1` [Example 34, (R)-6-(3-(2,4-difluorophenyl)isoxazolidin-2-yl)-N-(2-methoxy-4-(4-(4-methylpiperazin-1-yl)piperidin-1-yl)phenyl)pyrimidin-4-amine], the GI50 is less than 50 nM in [1]; less than 50 nM in [2]; 50 to 500 nM in test [3]; 50 to 500 nM in [4]; 50 to 500 nM in test [5]; less than 50 nM in test [6]. The pIC50 against EGFR (d746-750) is 8.10; on EGFR (d746-750/C797A), 8.46; on EGFR (d746-750/C797S) it was greater than 9.30; in test [7] it was 7.22; on EGFR (D761Y), greater than 9.30; at EGFR (G719C) it was 9.30. The pIC50 against EGFR (G719D) was greater than 9.30; against EGFR (G719S) it was 8.57; on EGFR (L718Q), 7.30; on EGFR (L747S), greater than 9.30; at EGFR (L792F), 8.06; against EGFR (L792F/L858R) it was 7.11. Besides, the values for the pIC50 on EGFR (L861Q), on ERBB2/HER2 and against ERBB4/HER4 were greater than 9.30, 8.28 and 7.38, respectively.
